Where a name gives a salt, the structure may show the parent alone.

This test concerns HCT116. The conditions noted are these: 72 h. The procedure, abridged: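 HCT116 cells were seeded at 250 per well in 1536-well plates with 5 h allowed for attachment. CellTiter-Glo luminescence was normalized against vehicle (0%) and positive control (-100%) before pattern correction. The IC50 and maximal efficacy figures derive from four-parameter Hill fits.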

Consider `NCCN.[Cl][Pt][Cl]` [Dichloro(ethylenediamine)platinum(II)], for which the IC50 cell viability runs as follows: (ICRF193 0 nM) > 45.8 µM; (ICRF193 200 nM) > 45.8 µM.

For the compound `COP(=O)(OC)OC=C(Cl)Cl` [Dichlorvos], the IC50 cell viability is, setting by setting: (ICRF193 0 nM) > 45.8 µM; (ICRF193 200 nM) > 45.8 µM.

`O=C(O)Cc1ccccc1Nc1c(Cl)cccc1Cl` [Diclofenac sodium]: the IC50 cell viability by setting is: (ICRF193 0 nM) > 45.8 µM; (ICRF193 200 nM) > 45.8 µM.

Take `NS(=O)(=O)c1cc(Cl)c(Cl)c(S(N)(=O)=O)c1` [Diclofenamide]: the IC50 cell viability is, setting by setting: (ICRF193 0 nM) > 45.8 µM; (ICRF193 200 nM) > 45.8 µM.

Regarding `Cc1onc(-c2c(Cl)cccc2Cl)c1C(=O)N[C@@H]1C(=O)N2[C@@H]1SC(C)(C)[C@@H]2C(=O)O` [Dicloxacillin sodium salt monohydrate], the IC50 cell viability runs as follows: (ICRF193 0 nM) > 45.8 µM; (ICRF193 200 nM) > 45.8 µM.

As to `O=c1oc2ccccc2c(O)c1Cc1c(O)c2ccccc2oc1=O` [Dicumarol], the IC50 cell viability by setting is: (ICRF193 0 nM) > 45.8 µM; (ICRF193 200 nM) > 45.8 µM.

Regarding `C1CCC(NC2CCCCC2)CC1` [Dicyclohexylamine], the IC50 cell viability runs as follows: (ICRF193 0 nM) > 45.8 µM; (ICRF193 200 nM) > 45.8 µM.

Consider `CCN(CC)CCOC(=O)C1(C2CCCCC2)CCCCC1` [Dicyclomine], for which the IC50 cell viability reads like this: (ICRF193 0 nM) > 45.8 µM; (ICRF193 200 nM) > 45.8 µM.

For the compound `S=C(SSC(=S)N1CCCCC1)N1CCCCC1` [Dicyclopentamethylenethiuram disulfide], the IC50 cell viability was > 45.8 µM (ICRF193 0 nM) and > 45.8 µM (ICRF193 200 nM).

`C[C@]12CCC3=C4CCC(=O)C=C4CC[C@H]3[C@@H]1CC[C@@]2(O)CC#N` [Dienogest]: the IC50 cell viability is, setting by setting: (ICRF193 0 nM) > 45.8 µM; (ICRF193 200 nM) > 45.8 µM.

Consider `CCOC(=O)c1ccccc1C(=O)OCC` [Diethyl phthalate], for which the IC50 cell viability reads like this: (ICRF193 0 nM) > 45.8 µM; (ICRF193 200 nM) > 45.8 µM.

Consider `CC(=O)OCC(=O)[C@@]1(OC(C)=O)[C@@H](C)C[C@H]2[C@@H]3C[C@H](F)C4=CC(=O)C=C[C@]4(C)[C@@]3(F)[C@@H](O)C[C@@]21C` [Diflorasone diacetate], for which the IC50 cell viability is > 45.8 µM (ICRF193 0 nM) and > 45.8 µM (ICRF193 200 nM).

Consider `CN1CCN(c2cc3c(cc2F)c(=O)c(C(=O)O)cn3-c2ccc(F)cc2)CC1` [Difloxacin hydrochloride], for which the IC50 cell viability (ICRF193 0 nM) is > 45.8 µM and the IC50 cell viability (ICRF193 200 nM) was > 45.8 µM.

Take `O=C(O)c1cc(-c2ccc(F)cc2F)ccc1O` [Diflunisal]: the IC50 cell viability reads like this: (ICRF193 0 nM) > 45.8 µM; (ICRF193 200 nM) > 45.8 µM.

For the compound `CCCC(=O)O[C@]1(C(=O)COC(C)=O)CC[C@H]2[C@@H]3C[C@H](F)C4=CC(=O)C=C[C@]4(C)[C@@]3(F)[C@@H](O)C[C@@]21C` [Difluprednate], the IC50 cell viability is, setting by setting: (ICRF193 0 nM) > 45.8 µM; (ICRF193 200 nM) > 45.8 µM.

In the case of `CC(C)C[C@H]1C(=O)N2CCC[C@H]2[C@]2(O)O[C@](NC(=O)[C@@H]3C[C@@H]4c5cccc6[nH]cc(c56)C[C@H]4N(C)C3)(C(C)C)C(=O)N12` [Dihydroergocriptine], the IC50 cell viability reads like this: (ICRF193 0 nM) > 45.8 µM; (ICRF193 200 nM) > 45.8 µM.

Turning to `CN1C[C@H](C(=O)N[C@]2(C)O[C@@]3(O)[C@@H]4CCCN4C(=O)[C@H](Cc4ccccc4)N3C2=O)C[C@@H]2c3cccc4[nH]cc(c34)C[C@H]21` [Dihydroergotamine], the IC50 cell viability by setting is: (ICRF193 0 nM) > 45.8 µM; (ICRF193 200 nM) > 45.8 µM.

Consider `CC(C)[C@@H](C)/C=C/[C@@H](C)[C@H]1CC[C@H]2/C(=C/C=C3\C[C@@H](O)CC[C@@H]3C)CCC[C@]12C` [Dihydrotachysterol], for which the IC50 cell viability is > 45.8 µM (ICRF193 0 nM) and > 45.8 µM (ICRF193 200 nM).

Turning to `CC(C)NC(C)C` [Diisopropylamine], the IC50 cell viability is > 45.8 µM (ICRF193 0 nM) and > 45.8 µM (ICRF193 200 nM).

As for `CN(C(=O)C(Cl)Cl)c1ccc(OC(=O)c2ccco2)cc1` [Diloxanide furoate], the IC50 cell viability is, setting by setting: (ICRF193 0 nM) > 45.8 µM; (ICRF193 200 nM) > 45.8 µM.

With `COc1ccc([C@@H]2Sc3ccccc3N(CCN(C)C)C(=O)[C@@H]2OC(C)=O)cc1` [Diltiazem], the IC50 cell viability (ICRF193 0 nM) is > 45.8 µM and the IC50 cell viability (ICRF193 200 nM) was > 45.8 µM.

`COc1ccc2c(=O)c(C)c(-c3ccccc3)oc2c1CN(C)C` [Dimefline hydrochloride]: the IC50 cell viability reads like this: (ICRF193 0 nM) > 45.8 µM; (ICRF193 200 nM) > 45.8 µM.

`Cc1ccc2c(c1)[C@]13CCCC[C@@H]1[C@H](C2)N(C)CC3` [Dimemorfan phosphate]: the IC50 cell viability was > 45.8 µM (ICRF193 0 nM) and > 45.8 µM (ICRF193 200 nM).

Turning to `CCCCc1cc2ccccc2c(OCCN(C)C)n1` [Dimethisoquin hydrochloride], the IC50 cell viability by setting is: (ICRF193 0 nM) > 45.8 µM; (ICRF193 200 nM) > 45.8 µM.

Consider `CC#C[C@]1(O)CC[C@H]2[C@@H]3C[C@H](C)C4=CC(=O)CC[C@]4(C)[C@H]3CC[C@@]21C` [Dimethisteron], for which the IC50 cell viability (ICRF193 0 nM) is > 45.8 µM and the IC50 cell viability (ICRF193 200 nM) is > 45.8 µM.

On to `COC(=O)/C=C\C(=O)OC` [Dimethyl maleate], for which the IC50 cell viability was > 45.8 µM (ICRF193 0 nM) and > 45.8 µM (ICRF193 200 nM).

For the compound `C[N+](C)(CCOc1ccccc1)Cc1cccs1` [Dimethyl(2-phenoxyethyl)-2-thenylammonium iodide], the IC50 cell viability reads like this: (ICRF193 0 nM) > 45.8 µM; (ICRF193 200 nM) > 45.8 µM.

With `CCCCN(CCN(CCCC)C(=O)N1CCOCC1)C(=O)N1CCOCC1` [Dimorpholamine], the IC50 cell viability runs as follows: (ICRF193 0 nM) > 45.8 µM; (ICRF193 200 nM) > 45.8 µM.

Regarding `O=C(Nc1ccccc1)OCC(CN1CCCCC1)OC(=O)Nc1ccccc1` (centres undefined) [Diperodon hydrochloride], the IC50 cell viability is > 45.8 µM (ICRF193 0 nM) and > 45.8 µM (ICRF193 200 nM).

Consider `C[N+]1(C)CCC(=C(c2ccccc2)c2ccccc2)CC1` [Diphemanil methylsulfate], for which the IC50 cell viability is > 45.8 µM (ICRF193 0 nM) and > 45.8 µM (ICRF193 200 nM).

With `OC(CCCN1CCCCC1)(c1ccccc1)c1ccccc1` [Diphenidol], the IC50 cell viability is > 45.8 µM (ICRF193 0 nM) and > 45.8 µM (ICRF193 200 nM).

Take `CN1CCC(OC(c2ccccc2)c2ccccc2)CC1` [Diphenylpyraline hydrochloride]: the IC50 cell viability by setting is: (ICRF193 0 nM) > 45.8 µM; (ICRF193 200 nM) > 45.8 µM.

For `CNCC(O)c1ccc(OC(=O)C(C)(C)C)c(OC(=O)C(C)(C)C)c1` (centres undefined) [Dipivefrin hydrochloride], the IC50 cell viability by setting is: (ICRF193 0 nM) > 45.8 µM; (ICRF193 200 nM) > 45.8 µM.

As to `CC[N+](CC)(CC)CCOC(=O)C(C1CCCC1)C1CCCC1` [Diponium bromide], the IC50 cell viability (ICRF193 0 nM) is > 45.8 µM and the IC50 cell viability (ICRF193 200 nM) is > 45.8 µM.

Take `OCCN(CCO)c1nc(N2CCCCC2)c2nc(N(CCO)CCO)nc(N3CCCCC3)c2n1` [Dipyridamole]: the IC50 cell viability (ICRF193 0 nM) is > 45.8 µM and the IC50 cell viability (ICRF193 200 nM) is > 45.8 µM.

Take `Cc1c(N(C)CS(=O)(=O)O)c(=O)n(-c2ccccc2)n1C` [Dipyrone]: the IC50 cell viability by setting is: (ICRF193 0 nM) > 45.8 µM; (ICRF193 200 nM) > 45.8 µM.

As for `CC[C@H]1OC(=O)[C@H](C)[C@@H](O[C@H]2C[C@@](C)(OC)[C@@H](O)[C@H](C)O2)[C@H](C)[C@@H](O[C@@H]2O[C@H](C)C[C@H](N(C)C)[C@H]2O)[C@](C)(O)C[C@@H](C)[C@@H]2N[C@@H](COCCOC)O[C@H]([C@H]2C)[C@]1(C)O` [Dirithromycin], the IC50 cell viability is > 45.8 µM (ICRF193 0 nM) and > 45.8 µM (ICRF193 200 nM).

For the compound `O=C([O-])CC(O)C(=O)[O-].[Na+].[Na+]` (centres undefined) [Disodium 2-hydroxybutanedioate], the IC50 cell viability reads like this: (ICRF193 0 nM) > 45.8 µM; (ICRF193 200 nM) > 45.8 µM.

On to `CC(C)N(CCC(C(N)=O)(c1ccccc1)c1ccccn1)C(C)C` (centres undefined) [Disopyramide], for which the IC50 cell viability is, setting by setting: (ICRF193 0 nM) > 45.8 µM; (ICRF193 200 nM) > 45.8 µM.

With `CN(CCCCCCN(C)C(=O)Oc1ccc[n+](C)c1)C(=O)Oc1ccc[n+](C)c1` [Distigmine Bromide], the IC50 cell viability (ICRF193 0 nM) is > 45.8 µM and the IC50 cell viability (ICRF193 200 nM) is > 45.8 µM.

Regarding `CCN(CC)C(=S)SSC(=S)N(CC)CC` [Disulfiram], the IC50 cell viability is, setting by setting: (ICRF193 0 nM) > 45.8 µM; (ICRF193 200 nM) > 45.8 µM.

Turning to `O=S(=O)(O)c1cc(O)ccc1O` [Dobesilate Calcium], the IC50 cell viability is > 45.8 µM (ICRF193 0 nM) and > 45.8 µM (ICRF193 200 nM).

`CCOC(=O)Oc1ccc(CCNC(=O)[C@H](CCSC)NC(C)=O)cc1OC(=O)OCC` [Docarpamine]: the IC50 cell viability is > 45.8 µM (ICRF193 0 nM) and > 45.8 µM (ICRF193 200 nM).

Take `CCCCCCCCCCCCCCCCCCCCCCO` [Docosanol]: the IC50 cell viability by setting is: (ICRF193 0 nM) > 45.8 µM; (ICRF193 200 nM) > 45.8 µM.

For `CN(CCOc1ccc(NS(C)(=O)=O)cc1)CCc1ccc(NS(C)(=O)=O)cc1` [Dofetilide], the IC50 cell viability (ICRF193 0 nM) was > 45.8 µM and the IC50 cell viability (ICRF193 200 nM) was > 45.8 µM.

Consider `O=C(O[C@@H]1C[C@@H]2C[C@H]3C[C@H](C1)N2CC3=O)c1c[nH]c2ccccc12` [Dolasetron mesylate hydrate], for which the IC50 cell viability (ICRF193 0 nM) was > 45.8 µM and the IC50 cell viability (ICRF193 200 nM) was > 45.8 µM.

As for `O=c1[nH]c2ccccc2n1CCCN1CCC(n2c(=O)[nH]c3cc(Cl)ccc32)CC1` [Domperidone], the IC50 cell viability was > 45.8 µM (ICRF193 0 nM) and > 45.8 µM (ICRF193 200 nM).

Regarding `COc1cc2c(cc1OC)C(=O)C(CC1CCN(Cc3ccccc3)CC1)C2` (centres undefined) [Donepezil hydrochloride], the IC50 cell viability (ICRF193 0 nM) was > 45.8 µM and the IC50 cell viability (ICRF193 200 nM) was > 45.8 µM.

Consider `NCCc1ccc(O)c(O)c1` [Dopamine hydrochloride], for which the IC50 cell viability (ICRF193 0 nM) was > 45.8 µM and the IC50 cell viability (ICRF193 200 nM) was > 45.8 µM.

For the compound `O=[N+]([O-])c1nccn1COC(CO)C(O)CO` (centres undefined) [Doranidazole], the IC50 cell viability was > 45.8 µM (ICRF193 0 nM) and > 45.8 µM (ICRF193 200 nM).

With `C[C@@H](O)[C@H]1C(=O)N2C(C(=O)O)=C(S[C@@H]3CN[C@H](CNS(N)(=O)=O)C3)[C@H](C)[C@H]12` [Doripenem], the IC50 cell viability (ICRF193 0 nM) is > 45.8 µM and the IC50 cell viability (ICRF193 200 nM) is > 45.8 µM.

For `CCN[C@H]1C[C@H](C)S(=O)(=O)c2sc(S(N)(=O)=O)cc21` [Dorzolamide hydrochloride], the IC50 cell viability (ICRF193 0 nM) is > 45.8 µM and the IC50 cell viability (ICRF193 200 nM) is > 45.8 µM.

The values are drawn from the supplement of paper PMC12137928.
